Data taken from ChEMBL document CHEMBL1127001, “Novel sigma receptor ligands 2” (Bioorg Med Chem Lett, 1993).

Key:
Glutamate NMDA receptor = assay: Binding affinity towards PCP receptor in rat brain membrane using radiolabeled ligand [3H]TCP (1-[1-(2-thienyl)cyclohexyl]piperidine) was determined; assay type: cell membranes
[1] = target: T1, Sigma non-opioid intracellular receptor 1 (Homo sapiens, UniProt Q99720); assay: Binding affinity towards sigma receptor using radiolabeled ligand [3H]-(+)-SKF- 10,047 was determined
D(2) dopamine receptor = D(2) dopamine receptor (Homo sapiens, UniProt P14416); assay: Binding affinity towards dopamine D2 receptor using radiolabeled ligand [3H]spiperone
[2] = target: T1, Sigma non-opioid intracellular receptor 1; assay: Binding affinity for sigma receptor using [3H]-(+)-SKF- 10,047
[3] = Binding affinity towards dopamine D2 receptor using radiolabeled ligand [3H]spiperone

Sequence of D(2) dopamine receptor (P14416 whole entry): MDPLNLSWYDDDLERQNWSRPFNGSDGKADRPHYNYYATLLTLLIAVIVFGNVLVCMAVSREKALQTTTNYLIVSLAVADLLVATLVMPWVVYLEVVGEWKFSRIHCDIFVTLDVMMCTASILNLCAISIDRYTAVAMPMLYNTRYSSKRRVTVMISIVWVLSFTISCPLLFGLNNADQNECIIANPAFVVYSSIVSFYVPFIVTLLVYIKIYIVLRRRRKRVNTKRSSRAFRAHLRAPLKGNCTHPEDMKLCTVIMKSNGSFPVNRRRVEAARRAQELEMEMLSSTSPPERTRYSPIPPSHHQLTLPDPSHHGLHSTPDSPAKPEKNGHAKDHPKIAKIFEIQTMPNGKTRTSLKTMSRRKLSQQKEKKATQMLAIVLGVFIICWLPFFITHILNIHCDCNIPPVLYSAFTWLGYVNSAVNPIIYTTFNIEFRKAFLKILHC
T1 sequence (Q99720 whole entry): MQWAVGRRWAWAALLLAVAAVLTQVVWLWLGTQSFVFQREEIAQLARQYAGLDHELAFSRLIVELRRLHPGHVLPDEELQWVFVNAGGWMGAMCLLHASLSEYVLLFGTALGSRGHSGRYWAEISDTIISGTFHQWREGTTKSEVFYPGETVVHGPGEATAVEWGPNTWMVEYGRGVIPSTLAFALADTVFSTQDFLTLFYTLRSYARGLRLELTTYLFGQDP

| Ki (Glutamate NMDA receptor) [nM] | Ki (D(2) dopamine receptor) [nM] | Ki [2] [nM] | Ki [3] [nM] | Compound | Ki [1] [nM] |
| --- | --- | --- | --- | --- | --- |
|  | 4100 | 352 |  | CN(C)CC1(C)CC(=O)C(c2ccccc2)=CO1 (single isomer, unassigned; (-)) |  |
|  | > 100000 | 7300 |  | CN1CCC2(CC1)CC(=O)C(c1ccc(F)cc1)=CO2 |  |
| 2230 |  |  | 47 | O=C1C(c2ccc(F)cc2)COC12CCN(Cc1ccccc1)CC2 (single isomer, unassigned; (-)) |  |
| > 10000 | > 10000 |  |  | O=C1C[C@]2(CC[C@H](OCc3ccccc3)CC2)OC=C1c1ccccc1 |  |
|  |  | 13 |  | O=C1CC2(CCCN(Cc3ccccc3)C2)OC=C1c1ccccc1 (single isomer, unassigned; (-)) |  |
|  | 1460 |  |  | O=C1CC2(CCN(Cc3ccccc3)CC2)OC=C1c1ccccc1 |  |
| > 10000 | > 10000 |  |  | CCN(CC)CCCC1(C)CC(=O)C(c2ccccc2)=CO1 (single isomer, unassigned; (-)) | 34 |
|  | 1080 | 7 |  | O=C1CC2(CCN(CCc3ccccc3)CC2)OC=C1c1cccs1 |  |
|  | 7600 | 70 |  | O=C1C=C(c2ccco2)OC2(CCN(CCc3ccccc3)CC2)C1 |  |
| > 10000 | > 10000 |  |  | O=C1C[C@]2(CC[C@@H](OCc3ccccc3)CC2)OC=C1c1ccccc1 |  |
| > 10000 | 8780 |  |  | O=C1CC2(CCCN(Cc3ccccc3)C2)OC=C1c1ccc(F)cc1 (single isomer, unassigned; (-)) | 131 |
|  | 4200 | 10 |  | O=C1C=C(c2ccccc2)OC2(CCN(CCc3ccccc3)CC2)C1 |  |

| Compound | Ki (Glutamate NMDA receptor) [nM] | Ki (D(2) dopamine receptor) [nM] | Ki [2] [nM] | Ki [3] [nM] | Ki [1] [nM] |
| --- | --- | --- | --- | --- | --- |
| O=C1CC2(CCN(CCc3ccccc3)CC2)OC=C1c1ccccc1F | 30000 | 2330 |  |  | 1 |
| O=C1CC2(CCN(CCc3ccccc3)CC2)OC=C1c1ccc(F)cc1 | 1690 | 2900 |  |  | 6 |
| O=C1CC2(CCN(CCc3ccccc3)CC2)OC=C1c1ccccc1 | > 10000 | 2030 |  |  | 5 |
| CN1C2CCC1CC1(CC(=O)C(c3ccccc3)=CO1)C2 (single isomer, unassigned; (-)) |  | > 10000 | 1830 |  |  |
| O=C1CC2(CCN(CCc3ccccc3)CC2)OCC1c1ccc(F)cc1 (stereo not drawn) | 14000 | 1530 |  |  |  |
| CN1CCC2(CC1)CC(=O)C(c1ccccc1)=CO2 |  | > 100000 | 6880 |  |  |
| COc1ccc(C2=COC3(CCN(CCc4ccccc4)CC3)CC2=O)cc1 |  | 1500 | 30 |  |  |
| O=C1CC2(CN3CCC2CC3)OC=C1c1ccccc1 (stereo not drawn) |  | > 10000 | 1590 |  |  |
